This passage reports IC50 results from patent US8492397B2, “Aminopyridine derivatives having Aurora A selective inhibitory action” (Vertex Pharmaceuticals Incorporated, priority 2009, dated 2013).

The target in one experiment is T1, Aurora B (Homo sapiens, UniProt Q96GD4).
T1 construct: histidine tag (N); made in house; host or cells: Escherichia coli BL21-CodonPlus(DE3)-RIL
Put plainly: Aurora B inhibitory action (33P-ATP Kemptide phosphorylation, filter assay). Particulars: His-tagged Aurora B, 100 μM Kemptide, 100 μM ATP, 30° C., 20 minutes. The format is biochemical. From the text: cDNA of Aurora B having histidine tag fused at the amino terminal was integrated into an expression vector, which was then highly expressed in Escherichia coli BL21-CodonPlus(DE3)-RIL cells. The Escherichia coli cells were recovered and solubilized, and then the histidine-tagged […] protein was adsorbed onto a nickel chelate column and eluted from the column with imidazole, The active fraction was desalted with a desalting column to give a pure enzyme.
For measurement of the activity of Aurora B, the substrate used was Kemptide (Leu-Arg-Arg-Ala-Ser-Leu-Gly) (SEQ.ID.NO.: 1), a synthetic peptide purchased from Sigma-Aldrich, Inc, [Certificate of analysis (Upstate, Inc.)].
Reaction was conducted by a partial modification of the method of activity measurement for Aurora A. The amount of the reaction liquid was 21.1 μL, and the composition of the reaction buffer (R2 buffer) was 50 mM Tris-hydrochloride buffer (pH 7.4)/15 mM magnesium acetate/0.2 mM ethylenediamine-N,N,N′,N′-tetraacetate (EDTA). To this, purified Aurora B, 100 μM of a substrate peptide, 100 μM of unlabeled adenosine triphosphate (ATP) and 1 μCi of [γ-^33P] labeled ATP (2,500 Ci/mmole or more) were added, and the mixture was reacted at 30° C. for 20 minutes. Then, 10 μL of 350 mM phosphate buffer was added to the reaction system to stop the reaction. The substrate peptide was adsorbed on a P81 paper filter 96-well plate and then washed with 130 mM phosphate buffer for several times. The radiation activity of the peptide was measured with a liquid scintillation counter. The [γ-^33P] labeled ATP was purchased from Amersham Biosciences Co., Ltd.

For a further experiment, the target named is T2, Aurora A (Homo sapiens, UniProt O14965).
T2 construct: histidine tag (N); made in house; host or cells: Escherichia coli BL21-CodonPlus(DE3)-RIL
T2 sequence (O14965 1-403): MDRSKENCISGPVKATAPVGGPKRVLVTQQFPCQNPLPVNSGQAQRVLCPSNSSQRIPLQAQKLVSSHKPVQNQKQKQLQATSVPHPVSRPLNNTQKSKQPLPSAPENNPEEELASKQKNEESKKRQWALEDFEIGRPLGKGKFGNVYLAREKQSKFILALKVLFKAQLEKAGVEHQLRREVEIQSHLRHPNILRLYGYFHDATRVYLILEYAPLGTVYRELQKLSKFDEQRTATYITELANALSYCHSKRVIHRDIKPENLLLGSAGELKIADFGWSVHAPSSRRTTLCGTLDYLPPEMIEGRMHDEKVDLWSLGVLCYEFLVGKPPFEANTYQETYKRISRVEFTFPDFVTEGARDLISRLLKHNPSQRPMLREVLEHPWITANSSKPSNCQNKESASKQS
The experiment can be described thus: Aurora A inhibitory action (33P-ATP Kemptide phosphorylation, filter assay). In kind it is biochemical. Particulars: His-tagged Aurora A, 100 μM Kemptide, 20 μM ATP, 30° C., 20 minutes. From the text: cDNA of Aurora A having histidine tag fused at the amino terminal was integrated into an expression vector, which was then highly expressed in Escherichia coli BL21-CodonPlus(DE3)-RIL cells. The Escherichia coli cells were recovered and solubilized, and then the histidine-tagged Aurora A protein was adsorbed onto a nickel chelate column and eluted from the column with imidazole. The active fraction was desalted with a desalting column to give a pure enzyme.
For measurement of the activity of Aurora A, the substrate used was Kemptide (Leu-Arg-Arg-Ala-Ser-Leu-Gly) (SEQ.ID.NO.: 1), a synthetic peptide purchased from Sigma-Aldrich, Inc. [Certificate of analysis (Upstate, Inc.)].
Reaction was conducted by a partial modification of a method by Upstate, Inc. [Kinase Profiler™ Assay Protocols]. The amount of the reaction liquid was 21.1 μL, and the composition of the reaction buffer (R2 buffer) was 50 mM Tris-hydrochloride buffer (pH 7.4)/15 mM magnesium acetate/0.2 μM ethylenediamine-N,N,N′,N′-tetraacetate (EDTA). To this, purified Aurora A, 100 μM of a substrate peptide, 20 μM of unlabeled adenosine triphosphate (ATP) and 0.5 μCi of [γ-^33P] labeled ATP (2,500 Ci/mmole or more) were added, and the mixture was reacted at 30° C. for 20 minutes. Then, 10 μL of 350 mM phosphate buffer was added to the reaction system to stop the reaction. The substrate peptide was adsorbed on a P81 paper filter 96-well plate and then washed with 130 mM phosphate buffer for several times. The radiation activity of the peptide was measured with a liquid scintillation counter. The [γ-^33P] labeled ATP was purchased from Amersham Biosciences Co., Ltd.
The compound to be tested was added to the reaction system such that a dilution series of the compound in dimethylsulfoxide was first prepared, and 1.1 μL of this solution was added. A control was provided by adding 1.1 μL of DMSO to the reaction system.

T1 sequence (Q96GD4 whole entry): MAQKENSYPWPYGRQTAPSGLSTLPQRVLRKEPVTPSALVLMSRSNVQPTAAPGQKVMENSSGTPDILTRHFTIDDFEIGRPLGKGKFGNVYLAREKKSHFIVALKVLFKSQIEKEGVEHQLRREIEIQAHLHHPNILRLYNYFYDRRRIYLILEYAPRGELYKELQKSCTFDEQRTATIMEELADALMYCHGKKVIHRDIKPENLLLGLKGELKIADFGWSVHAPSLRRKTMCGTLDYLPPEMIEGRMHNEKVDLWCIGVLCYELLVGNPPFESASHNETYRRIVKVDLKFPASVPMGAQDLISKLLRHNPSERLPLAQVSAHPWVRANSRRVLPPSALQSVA

Consider `Cc1cc(Nc2cc(C)[nH]n2)nc(N2CC[C@H](NC(=O)O[C@@H](C)C(F)(F)F)C2)n1` [Example 3, (2S)-1,1,1-trifluoropropan-2-yl {(3S)-1-[4-methyl-6-(5-methyl-1H-pyrazol-3-ylamino)pyrimidin-2-yl]pyrrolidin-3-yl}carbamate], for which the 50% inhibitory concentration (IC50) at Aurora B amounted to 190 nM; against Aurora A it was 6.4 nM.

As for `Cc1cc(Nc2cc[nH]n2)nc(N2CC(NC(=O)OC(C)(C)C)[C@H](C)C2)n1` (stereo in doubt) [Example 9, tert-butyl {(3R,4R)-4-methyl-1-[4-methyl-6-(1H-pyrazol-3-ylamino)pyrimidin-2-yl]pyrrolidin-3-yl}carbamate], the IC50 on Aurora B stood at 5800 nM; at Aurora A, 75 nM.

As to `Cc1cc(Nc2cc[nH]n2)nc(N2CC[C@H](NC(=O)O[C@@H](C)C(F)(F)F)C2)n1` [Example 1, (2S)-1,1,1-trifluoropropan-2-yl{(3S)-1-[4-methyl-6-(1H-pyrazol-3-ylamino)pyrimidin-2-yl]pyrrolidin-3-yl}carbamate], the IC50 on Aurora B turned out to be 210 nM; at Aurora A it was 3.6 nM.

For `CO[C@@H]1CN(c2nc(C)cc(Nc3cc[nH]n3)n2)C[C@H]1NC(=O)O[C@@H](C)C(F)(F)F` [Example 8, (2S)-1,1,1-trifluoropropan-2-yl{(3R,4R)-4-methoxyl-1-[4-methyl-6-(1H-pyrazol-3-ylamino)pyrimidin-2-yl]pyrrolidin-3-yl}carbamate], the IC50 is more than 10000 nM at Aurora B and 37 nM on Aurora A.

For the compound `Cc1cc(Nc2cc(C)[nH]n2)nc(N2CC[C@H](NC(=O)OC(C)(C)C)C2)n1` [Example 6, tert-butyl {(3S)-1-[4-methyl-6-(5-methyl-1H-pyrazol-3-ylamino)pyrimidin-2-yl]pyrrolidin-3-yl}carbamate], the figures for the IC50 against Aurora B and against Aurora A were 1800 nM and 28 nM, respectively.

As to `Cc1cc(Nc2cc[nH]n2)nc(N2CC(NC(=O)O[C@@H](C)C(F)(F)F)[C@H](C)C2)n1` (stereo in doubt) [Example 7, (2S)-1,1,1-trifluoropropan-2-yl{(3R,4R)-4-methyl-1-[4-methyl-6-(1H-pyrazol-3-ylamino)pyrimidin-2-yl]pyrrolidin-3-yl}carbamate], the results for the 50% inhibitory concentration (IC50) against Aurora B and against Aurora A were 310 nM and 6.2 nM, respectively.

For `Cc1cc(Nc2cc[nH]n2)nc(N2C[C@@H](O)[C@H](NC(=O)O[C@@H](C)C(F)(F)F)C2)n1` [Example 2, (2S)-1,1,1-trifluoropropan-2-yl{(3R,4R)-4-hydroxy-1-[4-methyl-6-(1H-pyrazol-3-ylamino)pyrimidin-2-yl]pyrrolidin-3-yl}carbamate], the IC50 is 2200 nM at Aurora B and 33 nM against Aurora A.

On to `Cc1cc(Nc2cc[nH]n2)nc(N2CC[C@H](NC(=O)OC(C)(C)C(F)(F)F)C2)n1` [Example 4, 1,1,1-trifluoro-2-methylpropan-2-yl{(3S)-1-[4-methyl-6-(1H-pyrazol-3-ylamino)pyrimidin-2-yl]pyrrolidin-3-yl}carbamate], for which the IC50 on Aurora B was determined as 3800 nM; against Aurora A, 22 nM.
